Source: patent US6596307B1, “Process for preparing pharmaceutical bulk material having uniform dissolution” (Eli Lilly and Company, priority 2001, dated 2003)
Values joined by “and” are separate entries in the source; they are usually repeats but may differ in a detail not shown here. Equal entries are not always repeated.

Tests used:
Type in all cases: physicochemical
[1] = Model Dissolution Test (capsule filled with drug substance only); settings: no related substances added; failed the test
Method: Approximately 523 mg of bulk cefaclor is filled into an empty 500 mg cefaclor capsule (KG3062). The USP monograph dissolution test is then performed with filtered samples being withdrawn at 15, 30, and 45 minutes. The test conditions are USP Apparatus 2 at 50 rpm using 900 ml of purified water maintained at 37° C. Visual examination is done at the time of sample collection. Visual observations range from “the material is completely dissolved and/or dispersed within 5 minutes with no visible residue or agglomerates to a large intact mass remains at the end of 45 minutes that is hard to the touch.” An ultraviolet (UV) assay is conducted on the filtered aliquots to determine the percent dissolution.

[2] = Near Infrared Dihydrate Conversion Test (NIR onset time); settings: for NIR Onset Time: cefaclor dihydrate dried in fluidized bed to different water contents (Table 2)
Excerpt: “NIR onset time” refers to the time between addition of water to a cefaclor sample and the observation of an absorption peak at about 5798 cm^−1 (1725 nm) as measured by Near-Infrared Reflectance Spectroscopy (NIRS). Depending upon the particular instrument used, the exact peak measurement may vary within the standard deviation established for that particular instrument.
The NIRS conversion test measures the time in minutes before the onset of the crystal form reversion for a sample of cefaclor bulk. […] To ensure that a lot will have an acceptable dissolution rate, one generally strives for a NIR onset time of >7 minutes, preferably >9 minutes and more preferably >10 minutes.
Approximately 1 to 2 grams of sample was spread in a thin layer on the bottom of an open aluminum weighing pan and placed in a constant humidity chamber, containing a saturated aqueous solution of K2HPO4, for at least two hours prior to analysis. Following equilibration in the humidity chamber, the sample was packed into a 2 mm×6 mm, stainless steel sample cup until full (approximately 35 mg), and 6 μL of water placed in the center of the sample. NIR data were collected using the NIR Systems model 5000 equipped with a fiber optic diffuse-reflectance probe, positioned over the sample cup. Immediately following addition of the water, NIR spectra were recorded from 1100 to 2500 nm approximately each 30 seconds. The time elapsed prior to the first appearance of the dihydrate peak at 1725 nm (5798 cm^−1) was reported as the NIR onset time.

[3] = USP 23 Standard Dissolution Test for Cefaclor Capsules; parameters: Capsule dissolution rate, 1st stage (Avg. n = 6) / Capsule dissolution rate, 1st stage, individual unit / Capsule dissolution rate, 2nd stage, individual unit: unit: %; settings: water 37° C., 30 minutes, then rehydrated; for Capsule dissolution rate, 1st stage, individual unit: % dissolved
Method: Dissolution (711): The test conditions are USP Apparatus 2 at 50 rpm using 900 ml of purified water maintained at 37° C. for 30 minutes. Determine the amount of Cefaclor monohydrate dissolved from ultraviolet absorbances at the wavelength of maximum absorbances at about 264 nm of filtered portions of the solution under test, suitably diluted with water, in comparison with a Standard solution having a know concentration of USP Cefaclor RS in the same medium.
Dissolution testing is continued with additional units through three stages unless the results conform at either the 1st or 2nd stage according to the following acceptance
The quantity, Q, is the % of dissolved active ingredient in the specification. For Cefaclor, at Stage 1, each individual unit must be at least 85% dissolved in 30 minutes to pass the testing. If any of the 6 units tested is less than 85% dissolved, the product fails level S1 and you must go to S2. At Stage 2, the mean of the twelve units tested (first 6 from S1 and 6 from S2) must be at least 80% dissolved and no unit may be less than 65% dissolved. If these criteria are not met, the product fails the level S2 specification and you must go to S3. At Stage 3, the mean of the 24 units tested (6 from S1+6 from S2+12 from S3) must be at least 80% dissolved, no more than 2 units may be less than 65% dissolved, and none of the units may be less than 55% dissolved.

[4] = Solubility in water of crystal forms
[5] = X-ray diffraction conversion rate test (monohydrate to dihydrate after addition of water); settings: added at 0.5% by weight to poorly dissolving lot, mixed dry; 1 ml water to 0.80 g sample
Method: Through X-ray diffraction studies of readily dissolving and incompletely dissolving lots of cefaclor, it was determined that all lots are initially in the same crystallographic state (monohydrate). Upon addition of water to readily dissolving lots, there is no change in the X-ray powder diffraction pattern over a five minute period. In contrast, when water is added to incompletely dissolving lot of cefaclor, substantial amounts of the dihydrate form are detected in less than five minutes. In an older lot of cefaclor, no dihydrate was detected for as long as two days, at which time the study was discontinued.
The Δ^2-isomer was added to a poorly dissolving lot of cefaclor at 0.5% concentration by weight. The sample was mixed in the dry state. After addition of 1 ml of water to a 0.80 g sample, the X-ray diffraction pattern was collected at different time intervals.
Kinetic studies were carried out using fraction 6 to gain a better understanding of how much would be required to achieve acceptable results in the model dissolution test.

[6] = bulk dried to 3.0 to 6.5% water (control method)
[7] = lots dried with full desiccation dried air
[8] = lots dried with 40 grains dried air

## N[C@@H](C(=O)N[C@@H]1C(=O)N2C(C(=O)O)=C(Cl)CS[C@H]12)c1ccccc1
[1]
  dissolved in thirty minutes: 78%

## N[C@@H](C(=O)NC1C(=O)N2C(C(=O)O)=C(Cl)CS[C@H]12)c1ccccc1 (some centres unmarked) [Cefaclor Monohydrate (Control), reference compound]
[2]; [6]
  NIR onset time, upper control limit: approximately 2.5 minutes
  average NIR onset time: 1.2 min

## N[C@@H](C(=O)N[C@@H]1C(=O)N2C(C(=O)O)=C(Cl)CS[C@H]12)c1ccccc1.O [Sample 1-1]
[2]
  NIR Onset Time: 3 min

## N[C@@H](C(=O)N[C@@H]1C(=O)N2C(C(=O)O)=C(Cl)CS[C@H]12)c1ccccc1.O [Sample 1-2]
[2]
  NIR Onset Time: 11 min

## N[C@@H](C(=O)N[C@@H]1C(=O)N2C(C(=O)O)=C(Cl)CS[C@H]12)c1ccccc1.O [Sample 1-3]
[2]
  NIR Onset Time: 2.5 min

## N[C@@H](C(=O)N[C@@H]1C(=O)N2C(C(=O)O)=C(Cl)CS[C@H]12)c1ccccc1 [Sample 2-1a]
[3]; [7]
  Capsule dissolution rate, 1st stage, individual unit: 102% (2×) and 100% and 94% and 101% (2×)
  Capsule dissolution rate, 1st stage (Avg. n = 6): 100

## N[C@@H](C(=O)N[C@@H]1C(=O)N2C(C(=O)O)=C(Cl)CS[C@H]12)c1ccccc1 [Sample 2-1b]
[3]; [7]
  Capsule dissolution rate, 1st stage, individual unit: 91 and 85 and 88 and 96 and 95 and 92
  Capsule dissolution rate, 1st stage (Avg. n = 6): 90

## N[C@@H](C(=O)N[C@@H]1C(=O)N2C(C(=O)O)=C(Cl)CS[C@H]12)c1ccccc1 [Sample 2-1c]
[3]; [7]
  Capsule dissolution rate, 1st stage, individual unit: 90 and 95 and 97 and 89 and 96 (2×)
  Capsule dissolution rate, 1st stage (Avg. n = 6): 94

## N[C@@H](C(=O)N[C@@H]1C(=O)N2C(C(=O)O)=C(Cl)CS[C@H]12)c1ccccc1 [Sample 2-2a]
[3]; [8]
  Capsule dissolution rate, 1st stage, individual unit: 97 and 92 and 95 and 81 and 98 and 101
  Capsule dissolution rate, 1st + 2nd stage (Avg. n = 12): 96
  Capsule dissolution rate, 1st stage (Avg. n = 6): 94
  Capsule dissolution rate, 2nd stage (Avg. n = 6): 98
  Capsule dissolution rate, 2nd stage, individual unit: 98 and 95 and 99 and 100 and 97 and 96

## N[C@@H](C(=O)N[C@@H]1C(=O)N2C(C(=O)O)=C(Cl)CS[C@H]12)c1ccccc1 [amorphous cefaclor, reference compound]
[2]; indicator tests
  effect of addition to a cefaclor bulk sample on dihydrate reversion time: decrease the reversion onset time

## N[C@@H](C(=O)N[C@@H]1C(=O)N2C(C(=O)O)=C(Cl)CS[C@H]12)c1ccccc1 [cefaclor dihydrate]
[4]
  solubility in water relative to the monohydrate form: less readily soluble

## N[C@@H](C(=O)NC1C(=O)N2C(C(=O)O)C(Cl)=CS[C@H]12)c1ccccc1 (stereo partly drawn) [Δ^2-isomer]
[5]
  inhibitory effect on conversion to dihydrate: minor inhibitory effect
